Results on 7 molecules are retold here after US20120088737A2, “NOVEL ACYL GUANIDINE DERIVATIVES” (AJINOMOTO CO., INC, priority 2009, published 2012).

Data set [1] has as its system renal dysfunction model rats. The experiment in a line: Continuous administration test in renal dysfunction model rats. In kind it is in vivo, Wistar rats. As to the method: Pharmacological Test Example 5: Continuous Administration Test in Renal Dysfunction Model Rats
After unilateral nephrectomy was performed on 7-week-old Wistar rats and the rats were habituated for 1 week, they were divided into 4 groups based on their body weights, Normal group, Vehicle group, 20 mg/kg of the compound of Example 7-administered group and 50 mg/kg of the compound of Example 7-administered group were assigned to 5 rats, respectively. After the rats were habituated in metabolic cages for 4 days, the test compound the compound of Example 7) dissolved in 0.5% methylcellulose solution was administered via gavage simultaneously with intraperitoneal administration of oleic acid-containing bovine serum albumin (OA-BSA) at a dose of 2 g/animal once daily for 4 days. Vehicles (0.5% methylcellulose solution) were administered to Normal group and Vehicle group instead of the test compound (the compound of Example 7). In addition, no oleic acid-containing bovine serum albumin was administered to Normal group and only unilateral nephrectomy was performed on the Normal group rats. Urine samples were collected from each rat on the last administration day to the next day of the last administration, and blood sampling and autopsy were conducted on the same day.

Data set [2] deals with T1, human NHE3 (Homo sapiens, UniProt P48764).
T1 construct: expressed in transfected cells; host or cells: OK26 cells (opossum kidney OK cells); OK26 ND sublines with opNHE1 reduced by 90% for A3
T1 sequence (P48764 26-834): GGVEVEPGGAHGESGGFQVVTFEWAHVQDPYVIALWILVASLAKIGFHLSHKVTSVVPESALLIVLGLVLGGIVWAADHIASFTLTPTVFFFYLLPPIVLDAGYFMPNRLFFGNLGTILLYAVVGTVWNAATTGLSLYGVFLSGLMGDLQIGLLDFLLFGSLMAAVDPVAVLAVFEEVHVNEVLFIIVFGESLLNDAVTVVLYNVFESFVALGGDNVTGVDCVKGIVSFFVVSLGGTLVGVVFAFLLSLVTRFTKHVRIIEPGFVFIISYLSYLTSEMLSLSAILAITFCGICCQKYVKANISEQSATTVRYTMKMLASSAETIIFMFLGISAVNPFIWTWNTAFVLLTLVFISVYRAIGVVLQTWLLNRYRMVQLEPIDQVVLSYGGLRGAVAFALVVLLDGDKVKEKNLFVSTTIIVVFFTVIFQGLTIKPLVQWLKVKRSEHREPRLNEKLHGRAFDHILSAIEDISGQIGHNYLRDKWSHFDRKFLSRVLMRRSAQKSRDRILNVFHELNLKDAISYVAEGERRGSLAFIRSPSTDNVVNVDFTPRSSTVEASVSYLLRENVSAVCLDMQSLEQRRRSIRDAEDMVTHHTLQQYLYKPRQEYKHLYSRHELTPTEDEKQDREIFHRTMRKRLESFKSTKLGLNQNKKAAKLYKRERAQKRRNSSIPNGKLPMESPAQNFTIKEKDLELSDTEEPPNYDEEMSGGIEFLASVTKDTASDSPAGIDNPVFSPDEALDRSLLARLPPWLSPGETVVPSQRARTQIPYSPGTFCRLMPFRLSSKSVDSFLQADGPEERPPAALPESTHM
Briefly: Measurements of NHE3 inhibitory activities (OK26 cells). The data set is classed as cell-based. Conditions: OK26 cells (opossum kidney cells overexpressing human NHE3), measurement time 5 minutes at 37° C.; read-out: hNHE3 IC50. As to the method:
(§1) HLF cells (Human hepatoma cell line) were used as cells for the test. After 1×10^4 cells/well were seeded to a 96-well plate and cultured for 3 days, they were cultured overnight under a serum-free medium. Then, the cells were incubated in a stain solution of Tetramethylammonium (TMA) Buffer (130 mM TMA-C1, 5 mM KCl, 2 mM CaCl2, 1 mM MgSO2, 25 mM glucose, 20 mM HEPES; pH 7.4) containing 40 mM NH4Cl and 1 μg/mL pH-sensitive fluorescent indicator BCECF-AM at 37° C. for 40 minutes and then BCECF was introduced into the cells. After the cells were washed once with TMA Buffer and incubated in TMA+40 mM NH4Cl solution at 37° C. for 15 minutes, the solution was removed and 20 μL/well of TMA Buffer and 10 μL/well of each test compound solution prepared with TMA Buffer were added to each well. The measurements were carried out by adding 200 μL/well of Na Buffer (130 mM, NaCl, 5 mM KCl, 2 mM CaCl2, 1 mM MgSO2, 1 mM NaH2PO4, 25 mM glucose, 20 mM HEPES; pH 7.4) or TMA Buffer (for base measurement), immediately placing it on FlexStation (Molecular Device) and then, after 10 minutes, measuring, it the two wavelengths of 505 nm (excitation wavelength)/530 nm (emission wavelength) (measurement value) and 440 nm (excitation wavelength)/530 nm (emission wavelength) (isosbestic point value). A NHE activity was calculated by dividing a measurement value by an isosbestic point value and a NHE1 inhibitory activity was calculated by the following equation. NHE1 inhibitory activity (%)=100×(1−(Measurement value [addition of each compound]−Base [addition of TMA Buffer])/(Control [addition of Na Buffer]−Base [addition of TMA Buffer]))
Pharmacological Test Example 2: Measurements of NHE3 Inhibitory Activities.
OK26 cells (OK (opossum kidney) cells in which human NHE3 genes are overexpressed) were used as cells for the test. The measurements were carried out in the same manner as described in Pharmacological Test Example 1 except that the measurement time was 5 minutes (at 37° C.) to calculate NHE3 inhibitory activities.

Data set [3] in a line: MDCK membrane permeability (trans-well). The data set is classed as in vitro ADME, Canine. Conditions: dog, apical pH 6.5 / basal pH 7.4, 37° C. On the procedure:
Pharmacological Test Example 4: MDCK Membrane Permeability
1×10^6 MDCK (MADIN-DARBY Canine Kidney) cells were seeded to each well and cultivated on a trans-well for 4 days (Mixed medium; DMEM: F12=1:1). The trans-well consists of a upper chamber into which cells are seeded and a lower chamber which is separated by a porous membrane and each test compound added into the upper chamber penetrates through the porous membrane to be detected in the lower chamber. The trans-well system has been used as a model for cell membrane permeability.
Buffer solution (pH 6.5) (138 mM NaCl, 2.7 mM KCl, 25 mM D-Glucose, 20 mM MES, 1.25 mM CaCl2, 0.5 mM MgCl2; pH was adjusted with KOH) was added into the upper chamber (Apical side) while Buffer solution (pH 7.4) (138 mM NaCl, 2.7 mM KCl, 25 mM D-Glucose, 20 mM HEPES, 1.25 mM CaCl2, 0.5 mM MgCl2; pH was adjusted with KOH) was added into the lower chamber (basal side). After it was pre-incubated at 37° C. for 20 minutes, 50 μM of each test compound was added thereto and then reacted at 37° C. for 1 hour. The solutions in the upper and lower chambers were collected and the concentrations of each test compound were determined by LC/MS to calculate membrane permeability values (Pm values) by the following equation. Pm[cm/sec]=(Concentration of each test compound in the basal side×1.5 mL)/(3600 sec×1.12 cm^2×Initial concentration of the added compound)

The target of data set [4] is T1, human NHE3. Briefly: Improved version of measurements of NHE3 inhibitory activities (OK26 ND cell lines). The data set is classed as cell-based. Conditions: OK26 ND cell lines (opNHE1 expression reduced by 90%), measurement time 8 minutes at 26° C.; read-out: hNHE3 IC50. As to the method: Pharmacological Test Example 3: Improved Version of Measurements of NHE3 Inhibitory Activities
OK26 cells express endogeneous NHE1 (opNHE1). In order to evaluate NHE3 inhibitory activities more precisely, OK26 ND cell lines in which the expression level of opNHE1 is reduced by 90% were established. Measurements of NEE inhibitory activities were carried out by using the established cell lines in the same manner as described in Pharmacological Test Example 1 except that the measurement time was 8 minutes (at 26° C.) to calculate more precise NHE3 inhibitory activities.

Data set [5] has as its target T2, NHE1 (Homo sapiens, UniProt P19634).
T2 construct: HLF cells (Human hepatoma cell line) were used as cells for the test; endogenous in cells; host or cells: HLF cells (human hepatoma cell line)
The experiment in a line: Measurements of NHE1 inhibitory activities (HLF cells, BCECF pH recovery). Conditions: HLF cells (human hepatoma cell line), measured after 10 minutes; read-out: hNHE1 IC50. In kind it is cell-based. On the procedure:
Pharmacological Test Example 1: Measurements of NHE1 Inhibitory Activities
as §1

[6] abbreviates: test compound-administered groups (20 and 50 mg/kg), 4 days, FIG. 2.

T2 sequence (P19634 whole entry): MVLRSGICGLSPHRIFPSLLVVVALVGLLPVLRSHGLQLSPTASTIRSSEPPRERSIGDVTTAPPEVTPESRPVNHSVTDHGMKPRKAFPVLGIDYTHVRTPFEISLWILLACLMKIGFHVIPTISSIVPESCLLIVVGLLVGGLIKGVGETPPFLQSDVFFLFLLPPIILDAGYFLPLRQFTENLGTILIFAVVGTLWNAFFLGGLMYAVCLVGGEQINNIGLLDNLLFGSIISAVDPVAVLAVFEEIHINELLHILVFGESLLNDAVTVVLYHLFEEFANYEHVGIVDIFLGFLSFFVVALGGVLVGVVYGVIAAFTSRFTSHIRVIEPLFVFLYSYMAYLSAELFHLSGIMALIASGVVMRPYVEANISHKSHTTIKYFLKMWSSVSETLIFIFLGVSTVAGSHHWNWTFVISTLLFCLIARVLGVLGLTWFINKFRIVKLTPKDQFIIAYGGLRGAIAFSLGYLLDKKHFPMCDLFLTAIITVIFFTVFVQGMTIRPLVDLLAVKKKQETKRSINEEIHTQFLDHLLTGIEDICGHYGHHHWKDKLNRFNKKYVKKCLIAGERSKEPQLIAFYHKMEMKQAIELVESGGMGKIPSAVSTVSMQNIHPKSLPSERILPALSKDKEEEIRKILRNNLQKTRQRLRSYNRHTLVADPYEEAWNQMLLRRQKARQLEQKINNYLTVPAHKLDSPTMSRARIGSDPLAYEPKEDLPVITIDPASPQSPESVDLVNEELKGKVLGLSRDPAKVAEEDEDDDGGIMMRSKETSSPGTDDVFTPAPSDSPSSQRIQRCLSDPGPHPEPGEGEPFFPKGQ

By IC50 is commonly meant the concentration needed to halve the response being measured. For orientation: Papp A→B means how fast a substance crosses the layer from the apical side. A high value points to ready permeation. `COC(=O)c1ccc(-c2ccccc2/C=C(\C)C(=O)NC(=N)N)cc1` [Example 7, (E)-2′-(3-guanidino-2-methyl-3-oxo-propenyl)-biphenyl-4-carboxylic acid methyl ester]: the “tubular damages (beta 2-microglobulin, marker for tubular damage)” value in data set [1] (20 mg/kg and 50 mg/kg via gavage once daily for 4 days, OA-BSA i.p., unilaterally nephrectomized rats, FIG. 1) was “Significant improvements in tubular damages”. Further, in data set [1] (test compound administered groups (20 and 50 mg/kg), 4 days, FIG. 3), the tubular damage scores entry is “Reductions in tubular damage scores”. Besides, in data set [1] (setting [6]), the “appearances of urinary cast (renal pathological images)” value is “significant reductions in appearances of urinary cast” and the “dilation of proximal renal tubules (renal pathological images)” value is listed as “improvements in dilation of proximal renal tubules”. The IC50 in data set [2] was more than 10000 nM. Besides, in data set [3], the apparent permeability from apical to basolateral (Papp A→B) at 1 h, 50 μM worked out at 2 ×10⁻⁶ cm/s.
On to `CC(=O)c1cccc(-c2ccccc2/C=C(\C)C(=O)NC(=N)N)c1` [Example 15, N-[(E)-3-(3′-acetyl-biphenyl-2-yl)-2-methyl-acryloyl]guanidine], for which the half-inhibitory concentration (IC50) in data set [2] was 610 nM; in data set [4], 360 nM; in data set [5], 1200 nM. In data set [3], this molecule came in with a Papp A→B at 1 h, 50 μM of 1 ×10⁻⁶ cm/s.
On to `C/C(=C\c1ccccc1-c1cc(C)c(O)c(C)c1)C(=O)NC(=N)N` [Example 22, N-[(E)-3-(3′,5′-dimethyl-4′-hydroxy-biphenyl-2-yl)-2-methyl-acryloyl]-guanidine], for which the half-maximal inhibitory concentration (IC50) was 230 nM in data set [2], 230 nM in data set [4] and 3100 nM in data set [5].
In the case of `C/C(=C\c1ccccc1-c1ccc(O)c(F)c1)C(=O)NC(=N)N` [Example 24, N-[(E)-3-(3′-fluoro-4′-hydroxy-biphenyl-2-yl)-2-methyl-acryloyl]-guanidine], the results for the IC50 in data set [2], in data set [4] and in data set [5] were 470 nM, 210 nM and 1200 nM, respectively.
Turning to `C/C(=C\c1ccccc1-c1ccc(O)c(O)c1)C(=O)NC(=N)N` [Example 26, N-[(E)-3-(3′,4′-dihydroxy-biphenyl-2-yl)-2-methyl-acryloyl]-guanidine], the IC50 was determined as 230 nM in data set [2], 230 nM in data set [4] and 500 nM in data set [5].
Regarding `C/C(=C\c1ccc(C)cc1-c1cccc(O)c1)C(=O)NC(=N)N` [Example 37, N-[(E)-3-(3′-hydroxy-5-methyl-biphenyl-2-yl)-2-methyl-acryloyl]-guanidine], the IC50 was 180 nM in data set [2], 38 nM in data set [4] and 1600 nM in data set [5].
Take `C/C(=C\c1ccc(C)cc1-c1ccc(O)cc1)C(=O)NC(=N)N` [Example 47, N-[(E)-3-(4′-hydroxy-5-methyl-biphenyl-2-yl)-2-methyl-acryloyl]-guanidine]: the IC50 in data set [2] amounted to 190 nM; in data set [4] it was 60 nM; in data set [5], 1600 nM.
